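Values below derive from 48-hour exposures of cells grown in 96-well plates, with endpoints linearly interpolated between the two concentrations bracketing the appropriate inhibition level. Here, GI50 denotes the concentration required for 50% inhibition of growth.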 Active and inactive are the calls of the source. Rule as the data show it: active = GI50 up to about 1.1 µM and inactive = higher.
Tests used:
Test in all cases: DTP human tumour cell line panel, 48 h
786-0 = test system: 786-0
A498 = test system: A498
A549 = test system: A549
ACHN = test system: ACHN
BT-549 = test system: BT-549
CAKI-1 = test system: CAKI-1
CCRF-CEM = test system: CCRF-CEM
COLO 205 = test system: COLO 205
DU-145 = test system: DU-145
EKVX = test system: EKVX
HCC 2998 = test system: HCC 2998
HCT-116 = test system: HCT-116
HCT-15 = test system: HCT-15
HL-60 = test system: HL-60
HOP-62 = test system: HOP-62
HOP-92 = test system: HOP-92
HT-29 = test system: HT-29
Hs-578T = test system: Hs-578T
IGROV-1 = test system: IGROV-1
K562 = test system: K562
KM12 = test system: KM12
LOX IMVI = test system: LOX IMVI
M14 = test system: M14
MCF7 = test system: MCF7
MDA-MB-231 = test system: MDA-MB-231
MDA-MB-435 = test system: MDA-MB-435
MDA-N = test system: MDA-N
MOLT-4 = test system: MOLT-4
Malme-3M = test system: Malme-3M
NCI-H226 = test system: NCI-H226
NCI-H23 = test system: NCI-H23
NCI-H460 = test system: NCI-H460
NCI-H522 = test system: NCI-H522
NCI/ADR-RES = test system: NCI/ADR-RES
OVCAR-3 = test system: OVCAR-3
OVCAR-4 = test system: OVCAR-4
OVCAR-5 = test system: OVCAR-5
OVCAR-8 = test system: OVCAR-8
PC-3 = test system: PC-3
RPMI-8226 = test system: RPMI-8226
RXF 393 = test system: RXF 393
SF-268 = test system: SF-268
SF-295 = test system: SF-295
SF-539 = test system: SF-539
SK-MEL-28 = test system: SK-MEL-28
SK-MEL-2 = test system: SK-MEL-2
SK-MEL-5 = test system: SK-MEL-5
SK-OV-3 = test system: SK-OV-3
SN12C = test system: SN12C
SNB-19 = test system: SNB-19
SNB-75 = test system: SNB-75
SR = test system: SR
SW-620 = test system: SW-620
T47D = test system: T47D
TK-10 = test system: TK-10
U-251 = test system: U-251
UACC-257 = test system: UACC-257
UACC-62 = test system: UACC-62
UO-31 = test system: UO-31

C[C@H]1CC[C@]2(NC1)O[C@H]1C[C@H]3[C@@H]4CC[C@H]5C[C@@H](O[C@@H]6O[C@H](CO)[C@H](O[C@@H]7O[C@H](CO)[C@@H](O)[C@H](O[C@@H]8OC[C@@H](O)[C@H](O)[C@H]8O)[C@H]7O[C@@H]7O[C@H](CO)[C@@H](O)[C@H](O)[C@H]7O)[C@H](O)[C@H]6O)CC[C@]5(C)[C@H]4CC[C@]3(C)[C@H]1[C@@H]2C [TOMATINE]
GI50 (786-0): 1.29 µM (inactive)
GI50 (A498): 1.87 µM (inactive)
GI50 (A549): 1.55 µM (inactive)
GI50 (ACHN): 1.71 µM (inactive)
GI50 (BT-549): 2.37 µM (inactive)
GI50 (CAKI-1): 0.753 µM (active)
GI50 (CCRF-CEM): 2.52 µM (inactive)
GI50 (COLO 205): 2 µM (inactive)
GI50 (DU-145): 1.64 µM (inactive)
GI50 (EKVX): 0.836 µM (active)
GI50 (HCC 2998): 0.993 µM (active)
GI50 (HCT-116): 1.7 µM (inactive)
GI50 (HCT-15): 2.48 µM
GI50 (HL-60): 2.48 µM (inactive)
GI50 (HOP-62): 1.63 µM (inactive)
GI50 (HOP-92): 1.99 µM (inactive)
GI50 (HT-29): 1.91 µM (inactive)
GI50 (Hs-578T): 1.64 µM (inactive)
GI50 (IGROV-1): 0.729 µM (active)
GI50 (K562): 2.74 µM (inactive)
GI50 (KM12): 1.98 µM (inactive)
GI50 (LOX IMVI): 2.17 µM (inactive)
GI50 (M14): 1.43 µM (inactive)
GI50 (MCF7): 2.32 µM (inactive)
GI50 (MDA-MB-231): 1.3 µM (inactive)
GI50 (MDA-MB-435): 1.41 µM (inactive)
GI50 (MDA-N): 0.558 µM (active)
GI50 (MOLT-4): 2.41 µM (inactive)
GI50 (Malme-3M): 0.605 µM (active)
GI50 (NCI-H226): 1.95 µM (inactive)
GI50 (NCI-H23): 1.65 µM (inactive)
GI50 (NCI-H460): 2.18 µM (inactive)
GI50 (NCI-H522): 1.62 µM (inactive)
GI50 (NCI/ADR-RES): 1.9 µM (inactive)
GI50 (OVCAR-3): 2.03 µM (inactive)
GI50 (OVCAR-4): 1.39 µM (inactive)
GI50 (OVCAR-5): 1.24 µM (inactive)
GI50 (OVCAR-8): 2.24 µM (inactive)
GI50 (PC-3): 0.719 µM (active)
GI50 (RPMI-8226): 0.766 µM (active)
GI50 (RXF 393): 1.8 µM (inactive)
GI50 (SF-268): 1.55 µM (inactive)
GI50 (SF-295): 1.05 µM (active)
GI50 (SF-539): 1.56 µM (inactive)
GI50 (SK-MEL-28): 1.26 µM (inactive)
GI50 (SK-MEL-2): 1.68 µM (inactive)
GI50 (SK-MEL-5): 2.23 µM (inactive)
GI50 (SK-OV-3): 1.61 µM (inactive)
GI50 (SN12C): 1.43 µM (inactive)
GI50 (SNB-19): 1.24 µM (inactive)
GI50 (SNB-75): 1.86 µM (inactive)
GI50 (SR): 2.42 µM (inactive)
GI50 (SW-620): 2.04 µM (inactive)
GI50 (T47D): 1.97 µM (inactive)
GI50 (TK-10): 1.54 µM (inactive)
GI50 (U-251): 1.02 µM (active)
GI50 (UACC-257): 2.12 µM (inactive)
GI50 (UACC-62): 1.01 µM (active)
GI50 (UO-31): 1.42 µM (inactive)

Oc1ccc2ccccc2c1-c1c(Nc2ccccc2)ccc2ccccc12
GI50 (786-0): 17.8 µM (inactive)
GI50 (A498): 18.1 µM (inactive)
GI50 (A549): 18.5 µM (inactive)
GI50 (ACHN): 19.9 µM (inactive)
GI50 (BT-549): 16.3 µM (inactive)
GI50 (CAKI-1): 14.9 µM (inactive)
GI50 (CCRF-CEM): 16.2 µM (inactive)
GI50 (COLO 205): 19.9 µM (inactive)
GI50 (DU-145): 17.3 µM (inactive)
GI50 (EKVX): 16.9 µM (inactive)
GI50 (HCC 2998): 14 µM (inactive)
GI50 (HCT-116): 11.6 µM (inactive)
GI50 (HCT-15): > 38 µM
GI50 (HL-60): 19.5 µM (inactive)
GI50 (HOP-62): 16.1 µM (inactive)
GI50 (HOP-92): 1.32 µM (inactive)
GI50 (HT-29): 33.7 µM (inactive)
GI50 (Hs-578T): 19.9 µM (inactive)
GI50 (IGROV-1): 5.73 µM (inactive)
GI50 (K562): 13.7 µM (inactive)
GI50 (KM12): 17.9 µM (inactive)
GI50 (LOX IMVI): 19.4 µM (inactive)
GI50 (M14): 11.7 µM (inactive)
GI50 (MCF7): 13 µM (inactive)
GI50 (MDA-MB-231): 0.498 µM (active)
GI50 (MDA-MB-435): 6.34 µM (inactive)
GI50 (MDA-N): 6.22 µM (inactive)
GI50 (MOLT-4): 17.7 µM (inactive)
GI50 (Malme-3M): 8.53 µM (inactive)
GI50 (NCI-H226): 21 µM (inactive)
GI50 (NCI-H23): 15.6 µM (inactive)
GI50 (NCI-H460): 15.4 µM (inactive)
GI50 (NCI-H522): 15.8 µM (inactive)
GI50 (NCI/ADR-RES): > 34.7 µM (inactive)
GI50 (OVCAR-3): 9.4 µM (inactive)
GI50 (OVCAR-4): 12.3 µM (inactive)
GI50 (OVCAR-5): 16.3 µM (inactive)
GI50 (OVCAR-8): 16.6 µM (inactive)
GI50 (PC-3): 18.4 µM (inactive)
GI50 (RPMI-8226): 17.8 µM (inactive)
GI50 (RXF 393): 17.2 µM (inactive)
GI50 (SF-268): 16.7 µM (inactive)
GI50 (SF-295): 16.8 µM (inactive)
GI50 (SF-539): 14 µM (inactive)
GI50 (SK-MEL-28): 13.9 µM (inactive)
GI50 (SK-MEL-2): 17.2 µM (inactive)
GI50 (SK-MEL-5): 13.6 µM (inactive)
GI50 (SK-OV-3): 6.08 µM (inactive)
GI50 (SN12C): 27 µM (inactive)
GI50 (SNB-19): 18.5 µM (inactive)
GI50 (SNB-75): 16.1 µM (inactive)
GI50 (SR): 16 µM (inactive)
GI50 (SW-620): 11.4 µM (inactive)
GI50 (T47D): 18.8 µM (inactive)
GI50 (TK-10): 16.9 µM (inactive)
GI50 (U-251): 21.8 µM (inactive)
GI50 (UACC-257): 18.9 µM (inactive)
GI50 (UACC-62): 14.9 µM (inactive)
GI50 (UO-31): 15.7 µM (inactive)
